From ChEMBL document CHEMBL1149631, “Synthesis of 3,8,9-trisubstituted-1,7,9-triaza-fluorene-6-carboxylic acid derivatives as a new class of insulin secretagogues” (Bioorg Med Chem, 2007)

Legend:
Format in all cases: functional
[1] = Effect on glucose-dependent insulin secretion activity per ug of total protein in rat RIN5F cells at 0.1 uM after 30 mins
[2] = Effect on glucose-dependent insulin secretion activity per ug of total protein in rat RIN5F cells at 1 uM after 30 mins
[3] = Effect on glucose-dependent insulin secretion activity per ug of total protein in rat RIN5F cells at 10 uM after 30 mins

Row | SMILES | Activity [1] [pg/µg/h] | Activity [2] [pg/µg/h] | Activity [3] [pg/µg/h]
1 | Cc1cnc2[nH]c3c(C)nc(C(=O)O)cc3c2c1 | 16.2 | 18.5 | 21.1
2 | Cc1cnc2[nH]c3c(C4CCCCC4)nc(C(=O)O)cc3c2c1 | 16.3 | 18.4 | 21.2
3 | O=C(O)c1cc2c([nH]c3ncccc32)c(Cc2ccccc2)n1 | 17.1 | 18.3 | 21.5
4 | COC(=O)c1cc2c3cccnc3n(C)c2c(C2CCCCC2)n1 | 13.4 | 13.9 | 14.2
5 | COC(=O)c1cc2c3cccnc3n(C)c2c(-c2ccccc2)n1 | 13.9 | 14.1 | 14.8
6 | O=C(O)c1cc2c(cn1)[nH]c1ncccc12 | 14.1 | 16.2 | 18
7 | O=C(O)c1cc2c([nH]c3ncccc32)c(-c2ccccc2)n1 | 16.2 | 18.1 | 20.6
8 | Cc1cnc2c(c1)c1cc(C(=O)O)nc(C)c1n2C | 18.1 | 22 | 28.3
9 | COC(=O)C1Cc2c(n(C)c3ncccc23)C(Cc2ccccc2)N1 (stereo unspecified) | 11.5 | 12.2 | 12.9
10 | COC(=O)c1cc2c([nH]c3ncccc32)c(C)n1 | 11 | 12.1 | 12.5
11 | COC(=O)c1cc2c([nH]c3ncc(C)cc32)c(C)n1 | 13.5 | 13.9 | 14.2
12 | COC(=O)C1Cc2c([nH]c3ncc(C)cc23)C(C)N1 (stereo unspecified) | 10.9 | 11.5 | 11.9
13 | COC(=O)C1Cc2c(n(C)c3ncccc23)C(C2CCCCC2)N1 (stereo unspecified) | 10.9 | 11.5 | 11.9
14 | Cn1c2ncccc2c2cc(C(=O)O)nc(-c3ccccc3)c21 | 17.2 | 19.3 | 21.1
15 | COC(=O)C1Cc2c(n(C)c3ncc(C)cc23)C(C2CCCCC2)N1 (stereo unspecified) | 12.4 | 13.4 | 14.2
16 | Cc1cnc2[nH]c3cnc(C(=O)O)cc3c2c1 | 15.1 | 17.3 | 19.2
17 | COC(=O)c1cc2c([nH]c3ncccc32)c(-c2ccccc2)n1 | 12 | 12.6 | 12.9
18 | COC(=O)C1Cc2c([nH]c3ncc(C)cc23)C(c2ccccc2)N1 (stereo unspecified) | 11 | 11.9 | 12.2
19 | COC(=O)c1cc2c(cn1)[nH]c1ncc(C)cc12 | 13.1 | 13.2 | 13.9

Row | SMILES | Activity [1] [pg/µg/h] | Activity [2] [pg/µg/h] | Activity [3] [pg/µg/h]
20 | Cc1nc(C(=O)O)cc2c3cccnc3n(C)c12 | 16.2 | 18.1 | 21.5
21 | COC(=O)c1cc2c3cc(C)cnc3n(C)c2c(-c2ccccc2)n1 | 15.1 | 15.6 | 16.2
22 | COC(=O)C1Cc2c(n(C)c3ncc(C)cc23)C(C)N1 (stereo unspecified) | 12.3 | 13.2 | 14
23 | COC(=O)C1Cc2c(n(C)c3ncc(C)cc23)C(c2ccccc2)N1 (stereo unspecified) | 13.5 | 14.9 | 15.2
24 | COC(=O)C1Cc2c([nH]c3ncccc23)C(C)N1 (stereo unspecified) | 10.1 | 10.6 | 10.9
25 | COC(=O)c1cc2c([nH]c3ncccc32)c(Cc2ccccc2)n1 | 12.9 | 13 | 13.5
26 | COC(=O)c1cc2c(cn1)[nH]c1ncccc12 | 11 | 11.9 | 12
27 | Cn1c2ncccc2c2cc(C(=O)O)nc(C3CCCCC3)c21 | 16.1 | 18.4 | 21.4
28 | COC(=O)C1Cc2c([nH]c3ncccc23)C(c2ccccc2)N1 (stereo unspecified) | 10.8 | 11.2 | 11.5
29 | COC(=O)c1cc2c([nH]c3ncc(C)cc32)c(C2CCCCC2)n1 | 13.5 | 14 | 14.3
30 | COC(=O)C1Cc2c([nH]c3ncccc23)CN1 (stereo unspecified) | 10.1 | 10.6 | 10.9
31 | Cc1cnc2c(c1)c1cc(C(=O)O)nc(-c3ccccc3)c1n2C | 19.1 | 26 | 32.2
32 | Cn1c2cnc(C(=O)O)cc2c2cccnc21 | 15.2 | 17.4 | 19.1
33 | COC(=O)c1cc2c3cccnc3n(C)c2c(Cc2ccccc2)n1 | 14 | 14.6 | 15
34 | Cc1cnc2c(c1)c1cc(C(=O)O)nc(C3CCCCC3)c1n2C | 18.2 | 23.1 | 28.2
35 | COC(=O)c1cc2c([nH]c3ncc(C)cc32)c(-c2ccccc2)n1 | 13.9 | 14.2 | 14.9
36 | COC(=O)c1cc2c3cccnc3n(C)c2cn1 | 13 | 13.1 | 13.9
37 | COC(=O)C1Cc2c([nH]c3ncc(C)cc23)CN1 (stereo unspecified) | 10.8 | 11.2 | 11.5
38 | Cn1c2ncccc2c2cc(C(=O)O)nc(Cc3ccccc3)c21 | 18.5 | 19.4 | 22.2

Row | SMILES | Activity [1] [pg/µg/h] | Activity [2] [pg/µg/h] | Activity [3] [pg/µg/h]
39 | Cc1cnc2c(c1)c1cc(C(=O)O)ncc1n2C | 17.3 | 20 | 24.2
40 | Cc1cnc2[nH]c3c(-c4ccccc4)nc(C(=O)O)cc3c2c1 | 17.1 | 19.3 | 21.4
41 | COC(=O)C1Cc2c(n(C)c3ncccc23)CN1 (stereo unspecified) | 10.8 | 11.2 | 11.5
42 | COC(=O)c1cc2c([nH]c3ncc(C)cc32)c(Cc2ccccc2)n1 | 14.1 | 14.8 | 15.1
43 | COC(=O)C1Cc2c([nH]c3ncccc23)C(Cc2ccccc2)N1 (stereo unspecified) | 10.9 | 11.5 | 11.9
44 | COC(=O)C1Cc2c(n(C)c3ncccc23)C(C)N1 (stereo unspecified) | 10.9 | 11.5 | 11.9
45 | COC(=O)c1cc2c3cc(C)cnc3n(C)c2cn1 | 14.3 | 14.9 | 15.6
46 | Cc1nc(C(=O)O)cc2c1[nH]c1ncccc12 | 15.4 | 17.4 | 20.1
47 | COC(=O)c1cc2c3cc(C)cnc3n(C)c2c(C2CCCCC2)n1 | 14.8 | 15.2 | 15.9
48 | COC(=O)C1Cc2c(n(C)c3ncccc23)C(c2ccccc2)N1 (stereo unspecified) | 11 | 11.9 | 12.2
49 | COC(=O)C1Cc2c([nH]c3ncc(C)cc23)C(Cc2ccccc2)N1 (stereo unspecified) | 11.5 | 12.2 | 12.9
50 | COC(=O)c1cc2c3cc(C)cnc3n(C)c2c(C)n1 | 14.8 | 15.2 | 15.9
51 | COC(=O)c1cc2c([nH]c3ncccc32)c(C2CCCCC2)n1 | 11.9 | 12.1 | 12.5
52 | COC(=O)C1Cc2c(n(C)c3ncc(C)cc23)CN1 (stereo unspecified) | 12.2 | 13.1 | 14.1
53 | COC(=O)C1Cc2c([nH]c3ncccc23)C(C2CCCCC2)N1 (stereo unspecified) | 10.2 | 10.7 | 11
54 | COC(=O)C1Cc2c([nH]c3ncc(C)cc23)C(C2CCCCC2)N1 (stereo unspecified) | 10.9 | 11.5 | 11.9
55 | COC(=O)c1cc2c3cccnc3n(C)c2c(C)n1 | 13.4 | 13.9 | 14.1
56 | O=C(O)c1cc2c([nH]c3ncccc32)c(C2CCCCC2)n1 | 15.5 | 17.1 | 20.4
57 | Cc1cnc2[nH]c3c(Cc4ccccc4)nc(C(=O)O)cc3c2c1 | 18 | 19.2 | 22.1
